One assay concerns the target TAK1-TAB1 (Homo sapiens (Human), UniProt O43318). The experiment in a line: TAK1-TAB1 competitive binding assay (LanthaScreen), without pre-incubation. To be noted: 10 nM TAK1-TAB1, 100 nM kinase tracer-236, read-out: TAK1-TAB1 Inhibition IC50. An excerpt: TAK1-TAB1 Binding Inhibitory Potency: The ability of candidate compounds to interact with TAK1-TAB1 is quantitated by a competitive binding assay using the LanthaScreen technology developed by Life Technologies. This assay is based on the binding of a proprietary, Alexa Fluor® 647-labeled, ATP-competitive kinase inhibitor (kinase tracer-236) to the TAK1-TAB1 construct in presence of a europium-conjugated antibody, resulting in a FRET (fluorescence resonance energy transfer) signal. Displacement of the kinase tracer by compound results in a lower emission ratio upon excitation of the europium chelate. Candidate compounds are designed as potential irreversible inhibitors of TAK1-TAB1, capable of ligating to an active site cysteine residue. The time dependent nature of irreversible inhibition is investigated by performing the binding assay with and without a pre-incubation of compound and TAK1-TAB1.
The inhibitory potency of candidate compounds is measured in 20 mM HEPES pH 7.5, 10 mM MgCl2, 0.01% BSA, 0.0005% Tween-20, and 2% DMSO in the presence of 10 nM TAK1-TAB1, 2 nM Eu-anti-his antibody, and 100 nM kinase tracer-236 using a 384-well plate format. Background signal is defined in the absence of TAK1-TAB1 and uninhibited signal is defined in the presence of vehicle (2% DMSO) alone. Compounds were evaluated in an 11 point dose-response ranging from 20 μM to 0.34 nM. The binding assays are performed under two conditions to evaluate time dependence of inhibition. For the pre-incubation assay, TAK1-TAB1 and Eu-anti-his antibody are preincubated with compound or vehicle for two hours prior to the addition of kinase tracer. The non-preincubated assay is run in which TAK1-TAB1 and Eu-anti-his antibody are added to a mixture of compound and kinase tracer. IC50 values of compounds are determined using a 4 parameter logistical fit of emission ratio as a function of the concentration of compound.
Compounds were tested in accordance with the above described assay, without pre-incubation, yielding the values described below: […]

Another assay concerns A549 cells. The experiment in a line: IL-1β stimulated IL-6 Production in A549 cells. Type of assay: cell-based. The note with it: Homo sapiens, 1 ng/ml rhIL1β, 18 hrs; for IC50: read-out: IL-6 Production IC; for activity at 5 µM: 5 μM compound, read-out: IL-6 Production % Control 5 μM; for activity at 50 µM: 50 μM compound, read-out: IL-6 Production % Control 50 μM. As to the method: IL-1β stimulated IL-6 Production in A549 cells: The cellular efficacy of compound candidates is determined using the human lung epithelial cell line A549 (ATCC #CCL-185), based upon the methods of Wheeler et al. (2004) J. Nutrition 134, 1039-1044, and Eda et al. (2011) Cell Biol. Int. 35, 355-358. A549 cells produce a number of cytokines (IL6, IL8 and TNFα) in response to stimulation with IL1β. To induce the production of inflammatory mediators, A549 cells are plated at a final concentration of 3×10^5 cells/well of a 96 well flat bottom plate in F12-K medium supplemented with 10% fetal bovine serum, 100 units/ml penicillin and 100 μg/ml streptomycin (Gibco BRL Life Technologies). Cells are treated with or without inhibitors for 3 hrs then stimulated with 1 ng/ml rhIL1β (R & D Systems) for an additional 18 hrs at 37° C. with 5% CO2. The supernatants are removed and stored at −20° C. until they are to be assayed. The levels of inflammatory mediators are determined using commercial MSD cytokine kits (Meso Scale Discovery) as per the manufacturer's instructions. Standard curves are based on 7 steps of 4× serial dilutions, with a wide dynamic range of 10000 pg/ml to 2.4 pg/ml, and the blank in triplicate. Lower limit of detection (LLOD) is calculated at the commonly used 3× the standard deviation of the blank.
Compounds were tested in accordance with the above described assay, yielding the values described below: […]

Experimental findings from patent publication US9505765B2, “4-alkoxy/aralkoxy-5-substituted-pyrrolopyrimidine compounds as TAK1 inhibitors in disease treatment” (Confluence Life Sciences Inc., priority 2012, dated 2016) are described below.

TAK1-TAB1, sequence (O43318 other isoform, or with tags, fused parts or gaps): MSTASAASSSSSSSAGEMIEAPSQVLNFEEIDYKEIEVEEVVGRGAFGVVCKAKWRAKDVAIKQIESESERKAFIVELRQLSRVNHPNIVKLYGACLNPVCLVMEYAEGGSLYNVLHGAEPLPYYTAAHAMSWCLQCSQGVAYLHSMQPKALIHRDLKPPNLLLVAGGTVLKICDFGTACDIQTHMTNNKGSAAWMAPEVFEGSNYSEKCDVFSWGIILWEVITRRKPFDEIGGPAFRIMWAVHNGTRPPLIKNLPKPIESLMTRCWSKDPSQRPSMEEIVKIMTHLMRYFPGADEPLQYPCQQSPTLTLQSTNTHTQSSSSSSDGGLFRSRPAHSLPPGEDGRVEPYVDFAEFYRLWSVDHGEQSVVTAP

On to `NC(=O)/C=C/c1c[nH]c2ncnc(Oc3ccccc3)c12` [Example 190, (E)-3-(4-phenoxy-7H-pyrrolo[2,3-d]pyrimidin-5-yl)acrylamide], for which the IC50 on TAK1-TAB1 amounted to 170 nM. Moreover, in the assay on A549 cells, the IC50 was determined as 1000 nM, the activity at 5 µM was found to be 15% and the activity at 50 µM was determined as 0%.
In the same order, the values of `CC(C)COc1ncnc2[nH]cc(/C=C/C(=O)NC[C@H](C)O)c12` [Example 182, (S,E)-N-(2-hydroxypropyl)-3-(4-isobutoxy-7H-pyrrolo[2,3-d]pyrimidin-5-yl)acrylamide] are 1600 nM, 3400 nM, 36% and 1%.
Take `CC(C)COc1ncnc2[nH]cc(/C=C/C(=O)O)c12` [Example 178, (E)-3-(4-isobutoxy-7H-pyrrolo[2,3-d]pyrimidin-5-yl)acrylic acid]: the IC50 at TAK1-TAB1 stood at 340 nM. In the assay on A549 cells, the activity at 5 µM was 68% and the activity at 50 µM came to 1%.
As to `CC(C)(O)COc1ncnc2[nH]cc(/C=C/C(N)=O)c12` [Example 193, (E)-3-(4-(2-hydroxy-2-methylpropoxy)-7H-pyrrolo[2,3-d]pyrimidin-5-yl)acrylamide], the IC50 at TAK1-TAB1 amounted to 75 nM. Moreover, in the assay with A549 cells, the IC50 amounted to 1200 nM, the activity at 5 µM came out at 22% and the activity at 50 µM stood at 0%.
Take `CC(C)(C)COc1ncnc2[nH]cc(/C=C/C(N)=O)c12` [Example 192, (E)-3-(4-(neopentyloxy)-7H-pyrrolo[2,3-d]pyrimidin-5-yl)acrylamide]: the IC50 on TAK1-TAB1 was found to be 5.2 nM. In the assay on A549 cells, the IC50 is 78 nM, the activity at 5 µM turned out to be 0% and the activity at 50 µM was 0%.
For `CNC(=O)/C=C/c1c[nH]c2ncnc(OCC(C)C)c12` [Example 39, (E)-3-(4-isobutoxy-7H-pyrrolo[2,3-d]pyrimidin-5-yl)-N-methylacrylamide], the IC50 on TAK1-TAB1 is 41 nM. Further, in the assay with A549 cells, the IC50 came to 43 nM, the activity at 5 µM is 0% and the activity at 50 µM amounted to 0%.
In the case of `NC(=O)/C=C/c1c[nH]c2ncnc(OCc3ccccc3)c12` [Example 96, (E)-3-(4-benzyloxy-7H-pyrrolo[2,3-d]pyrimidin-5-yl)-acrylamide], at TAK1-TAB1, the IC50 was 730 nM. For the same compound, in the assay on A549 cells, the activity at 5 µM was 78% and the activity at 50 µM was 0%.
Regarding `CC(C)COc1ncnc2[nH]cc(/C=C(\Cl)C(N)=O)c12` [Example 196, (Z)-2-chloro-3-(4-isobutoxy-7H-pyrrolo[2,3-d]pyrimidin-5-yl)acrylamide], the IC50 at TAK1-TAB1 stood at 360 nM. In addition, in the assay on A549 cells, the IC50 amounted to 750 nM, the activity at 5 µM turned out to be 0% and the activity at 50 µM came to 0%.
As for `CC(C)COc1ncnc2[nH]cc(C#N)c12` [Example 1, 4-isobutoxy-7H-pyrrolo[2,3-d]pyrimidine-5-carbonitrile], on TAK1-TAB1, the IC50 worked out at 560 nM. Further, in the assay on A549 cells, the activity at 5 µM came to 83% and the activity at 50 µM worked out at 6%.
Consider `CC(C)COc1ncnc2[nH]cc(/C=C/C(N)=O)c12` [Example 38, (E)-3-(4-isobutoxy-7H-pyrrolo[2,3-d]pyrimidin-5-yl)acrylamide], for which, at TAK1-TAB1, the IC50 amounted to 3.1 nM. In addition, in the assay with A549 cells, the IC50 was 85 nM, the activity at 5 µM turned out to be 0% and the activity at 50 µM came to 0%.
Turning to `COC(=O)/C=C/c1c[nH]c2ncnc(OCc3ccccc3)c12` [Example 201, (E)-3-(4-benzyloxy-7H-pyrrolo[2,3-d]pyrimidin-5-yl)-acrylic acid methylester], the IC50 at TAK1-TAB1 was 350 nM. Further, in the assay on A549 cells, the IC50 was 800 nM, the activity at 5 µM was 26% and the activity at 50 µM turned out to be 1%.
With `CCC(C)Oc1ncnc2[nH]cc(/C=C/C(N)=O)c12` (stereo not drawn) [Example 187, (E)-3-(4-(sec-butoxy)-7H-pyrrolo[2,3-d]pyrimidin-5-yl)acrylamide], at TAK1-TAB1, the IC50 is 4.3 nM. Moreover, in the assay on A549 cells, the IC50 worked out at 190 nM, the activity at 5 µM was determined as 0% and the activity at 50 µM stood at 0%.
